Earlier results as cited in patent US20250214928A1 (priority 2023, published 2025).

Experiments:
[1] = tested on: kainic acid-induced status epilepticus model; details: mouse study, ref. [5]
[2] = tested on: tumor-specific antigens (CEA, CA 19/9, CA 125, prostate-specific antigen); details: meta-analysis of phase I/II trials, over 400 patients, dose-dependent, ref. [9]

For `CNC(=O)[C@@H](NC(=O)[C@H](CC(C)C)[C@H](O)C(=O)NO)C(C)(C)C` [marimastat, (2R,3S)-N-1-((S)-3,3-dimethyl-1-methylamino-1-oxobutan-2-yl)-N-4,3-dihydroxy-2-isobutylsuccinamide], the duration of seizures [1] is given as “reduced”, the number of seizures [1] is given as “reduced” and the “growth indicators of tumor-specific antigens (all four)” value [2] is given as “significantly reduced”.
